# Patent US20260274857A1, “CRYSTAL OF DIHYDROPYRIDINONE DERIVATIVE OR SOLVATE THEREOF” (Shionogi & Co., Ltd., priority 2022, published 2026)
# Experiments:
# [1] = Moisture adsorption/desorption isotherm measurement (DVS); format: physicochemical
# Source text: The moisture adsorption/desorption isotherm measurement is a measurement method for measuring the adsorption and desorption behavior of moisture by measuring a weight change in a solid as a measurement target under each relative humidity condition.
# As a basic measurement method, based on the dry weight at 0% RH (relative humidity 0%), the relative humidity is increased every 5% or 10%, and after the weight is stabilized at each relative humidity, the amount of adsorbed water can be determined from the weight increase from the reference value. Similarly, the desorption amount of water can be measured by decreasing the relative humidity every 5% or 10% from 100% RH or 95% RH.
# By plotting the value of the weight change at each relative humidity, an adsorption/desorption isotherm can be obtained.
# Sorption and desorption of adhesion water and crystal water are affected by particle size, crystallinity, crystal habit, and the like, so that the measurement results may slightly change.
# The crystals and amorphous substances obtained in each Example were weighed in an aluminum pan, and allowed to stand at 25° C. and a relative humidity of 0%. The measurement was started after the compound was sufficiently dried and the weight was stabilized, and the weight when the relative humidity changed from 0% to 95% by 5% was recorded. Next, the weight when the relative humidity changed from 95% to 0% by 5% was recorded.
# Device: DVS Advantage manufactured by Surface Measurement Systems
# [2] = Solid stability test: storage stability (amount of analogous substance by HPLC, appearance); format: physicochemical
# Protocol: For the solid stability of the crystal of the compound represented by Formula (I) obtained in Example 1 and the crystal of the compound represented by Formula (II) obtained in Example 16, the chemical stability under temperature, temperature and humidity conditions, and light irradiation was evaluated. The proportion (%) of the analogous substance produced by an HPLC method and the change in appearance were evaluated.
# About 10 mg of the crystal was accurately weighed in a 2 mL glass container with a polyethylene stopper. After the glass container was closed, the glass container was stored at 40° C. or 60° C. for 2 weeks, 1 month, 2 months, 3 months, or 6 months. A sample stored at 40° C. is referred to as a 40° C. hermetically sealed product, and a sample stored at 60° C. is referred to as a 60° C. hermetically sealed product. In a state where the glass container was opened, the glass container was stored at a relative humidity of 75±5% at 40° C. or a relative humidity of 89±5% for 2 weeks, 1 month, 2 months, 3 months or 6 months, or in the presence of silica gel at 40° C. for 1 month, 2 months, 3 months or 6 months. A sample stored at 40° C. and a relative humidity of 75±5% or 89±5% is referred to as a 40° C. and 75% relative humidity (also referred to as 40±2° C./75±5% RH) or 40° C. and 89% relative humidity (also referred to as 40±2° C./89% RH) stored product, and a sample stored in the presence of silica gel at 40° C. is referred to as a 40° C. stored product. The −40° C. hermetically sealed product was used as a standard product.
# The amount of the analogous substance was measured by an area percentage method by the HPLC method under the following conditions.
# HPLC Conditions 1 were used for the crystal and amorphous substance of the compound represented by Formula (I) obtained in Example 1, and HPLC conditions 2 were used for the crystal of the compound represented by Formula (II) obtained in Example 16.
# • Detector: ultraviolet absorptiometer (measurement wavelength: 260 nm) • Column: YMC-Triart C18 ExRS, S-1.9 μm, 3.0×100 mm • Column temperature: constant temperature at near 40° C. • Mobile phase A: 0.1% formic acid aqueous solution • Mobile phase B: acetonitrile • Flow rate: about 0.6 mL/min • Injection amount: 3 μL • Sample cooler temperature: about 6° C. • Feed of mobile phase: The mixing ratio of mobile phase A and mobile phase B was changed as shown in Table 18 to control concentration gradient.
# Column: Cortecs (2.7 μm 3.0×100 mm)
# Column temperature: 40° C.
# UV detection wavelength: 254 nm
# [3] = 40° C. Relative humidity 75%, 2 months
# [4] = 40° C. hermetically sealed, 1 month
# [5] = 40° C. hermetically sealed, 2 months
# [6] = 40° C. hermetically sealed, 2 weeks
# [7] = 60° C. hermetically sealed, 1 month
# [8] = 60° C. hermetically sealed, 2 weeks
# [9] = (Standard product) −40° C. hermetically sealed, 1 month
# [10] = (Standard product) −40° C. hermetically sealed, 2 months
smiles,measurement,setting,value
CS(=O)(=O)CC(=O)Nc1c2c(nn1CCCOC(F)(F)F)C[C@@]1(CCOc3cc(OCC(F)(F)F)ccc31)NC2=O [amorphous substance of the compound represented by Formula (],difference in water content between 0% RH and 95% RH,"[1]; DVS, 25° C.",about 2.6%
Cc1ccc(-n2nc3c(c2NC(=O)CS(C)(=O)=O)C(=O)NC2(CCOc4cc(F)cc(F)c42)C3)nc1 (stereo not shown) [listing 1 of 2 here],Moisture adsorption amount (%),[1]; relative humidity 0.0%,0.002%
same,Moisture desorption amount (%),[1]; relative humidity 0.0%,−0.433%
same,Moisture adsorption amount (%),[1]; relative humidity 5.0%,0.676%
same,Moisture desorption amount (%),[1]; relative humidity 5.0%,0.606%
same,Moisture adsorption amount (%),[1]; relative humidity 10.0%,1.020%
same,Moisture desorption amount (%),[1]; relative humidity 10.0%,1.196%
same,Moisture adsorption amount (%),[1]; relative humidity 15.0%,1.312%
same,Moisture desorption amount (%),[1]; relative humidity 15.0%,1.674%
same,Moisture adsorption amount (%),[1]; relative humidity 20.0%,1.574%
same,Moisture desorption amount (%),[1]; relative humidity 20.0%,2.131%
same,Moisture adsorption amount (%),[1]; relative humidity 25.0%,1.807%
same,Moisture desorption amount (%),[1]; relative humidity 25.0%,2.495%
same,Moisture adsorption amount (%),[1]; relative humidity 30.0%,2.015%
same,Moisture desorption amount (%),[1]; relative humidity 30.0%,2.831%
same,Moisture adsorption amount (%),[1]; relative humidity 35.0%,2.213%
same,Moisture desorption amount (%),[1]; relative humidity 35.0%,3.157%
same,Moisture adsorption amount (%),[1]; relative humidity 40.0%,2.414%
same,Moisture desorption amount (%),[1]; relative humidity 40.0%,3.423%
same,Moisture adsorption amount (%),[1]; relative humidity 45.0%,2.589%
same,Moisture desorption amount (%),[1]; relative humidity 45.0%,3.699%
same,Moisture adsorption amount (%),[1]; relative humidity 50.0%,2.780%
same,Moisture desorption amount (%),[1]; relative humidity 50.0%,3.913%
same,Moisture adsorption amount (%),[1]; relative humidity 55.0%,2.976%
same,Moisture desorption amount (%),[1]; relative humidity 55.0%,4.135%
same,Moisture adsorption amount (%),[1]; relative humidity 60.0%,3.185%
same,Moisture desorption amount (%),[1]; relative humidity 60.0%,4.411%
same,Moisture adsorption amount (%),[1]; relative humidity 65.0%,3.384%
same,Moisture desorption amount (%),[1]; relative humidity 65.0%,4.683%
same,Moisture adsorption amount (%),[1]; relative humidity 70.0%,3.623%
same,Moisture desorption amount (%),[1]; relative humidity 70.0%,5.151%
same,Moisture adsorption amount (%),[1]; relative humidity 75.0%,3.914%
same,Moisture desorption amount (%),[1]; relative humidity 75.0%,5.420%
same,Moisture adsorption amount (%),[1]; relative humidity 80.0%,4.320%
same,Moisture desorption amount (%),[1]; relative humidity 80.0%,5.865%
same,Moisture adsorption amount (%),[1]; relative humidity 85.0%,4.850%
same,Moisture desorption amount (%),[1]; relative humidity 85.0%,6.219%
same,Moisture adsorption amount (%),[1]; relative humidity 90.0%,5.604%
same,Moisture desorption amount (%),[1]; relative humidity 90.0%,6.599%
same,Moisture adsorption amount (%),[1]; relative humidity 95.0%,6.974%
same,Moisture desorption amount (%),[1]; relative humidity 95.0%,6.974%
Cc1ccc(-n2nc3c(c2NC(=O)CS(C)(=O)=O)C(=O)NC2(CCOc4cc(F)cc(F)c42)C3)nc1 (stereo not shown) [listing 2 of 2 here],Amount (%) of total analogous substance,[2]; [3],0.27%
same,Amount (%) of total analogous substance,[2]; [4],0.22%
same,Amount (%) of total analogous substance,[2]; [5],0.23%
same,Amount (%) of total analogous substance,[2]; [6],0.22%
same,Amount (%) of total analogous substance,[2]; [7],0.24%
same,Amount (%) of total analogous substance,[2]; [8],0.23%
same,Amount (%) of total analogous substance,[2]; [9],0.22%
same,Amount (%) of total analogous substance,[2]; [10],0.22%
CS(=O)(=O)CC(=O)Nc1c2c(nn1CCCOC(F)(F)F)CC1(CCOc3cc(OCC(F)(F)F)ccc31)NC2=O (stereo not shown) [listing 1 of 2 here],Amount (%) of total analogous substance,[2]; [3],0.68%
same,Amount (%) of total analogous substance,[2]; [4],0.65%
same,Amount (%) of total analogous substance,[2]; [5],0.66%
same,Amount (%) of total analogous substance,[2]; [6],0.64%
same,Amount (%) of total analogous substance,[2]; [7],0.85%
same,Amount (%) of total analogous substance,[2]; [8],0.76%
same,Amount (%) of total analogous substance,[2]; [9],0.61%
same,Amount (%) of total analogous substance,[2]; [10],0.62%
CS(=O)(=O)CC(=O)Nc1c2c(nn1CCCOC(F)(F)F)CC1(CCOc3cc(OCC(F)(F)F)ccc31)NC2=O (stereo not shown) [listing 2 of 2 here],Moisture adsorption amount (%),[1]; relative humidity 0.0%,0.001%
same,Moisture desorption amount (%),[1]; relative humidity 0.0%,−0.004%
same,Moisture adsorption amount (%),[1]; relative humidity 5.0%,0.242%
same,Moisture desorption amount (%),[1]; relative humidity 5.0%,0.453%
same,Moisture adsorption amount (%),[1]; relative humidity 10.0%,0.353%
same,Moisture desorption amount (%),[1]; relative humidity 10.0%,0.715%
same,Moisture adsorption amount (%),[1]; relative humidity 15.0%,0.457%
same,Moisture desorption amount (%),[1]; relative humidity 15.0%,0.916%
same,Moisture adsorption amount (%),[1]; relative humidity 20.0%,0.556%
same,Moisture desorption amount (%),[1]; relative humidity 20.0%,1.067%
same,Moisture adsorption amount (%),[1]; relative humidity 25.0%,0.651%
same,Moisture desorption amount (%),[1]; relative humidity 25.0%,1.194%
same,Moisture adsorption amount (%),[1]; relative humidity 30.0%,0.741%
same,Moisture desorption amount (%),[1]; relative humidity 30.0%,1.311%
same,Moisture adsorption amount (%),[1]; relative humidity 35.0%,0.831%
same,Moisture desorption amount (%),[1]; relative humidity 35.0%,1.412%
same,Moisture adsorption amount (%),[1]; relative humidity 40.0%,0.922%
same,Moisture desorption amount (%),[1]; relative humidity 40.0%,1.510%
same,Moisture adsorption amount (%),[1]; relative humidity 45.0%,1.003%
same,Moisture desorption amount (%),[1]; relative humidity 45.0%,1.601%
same,Moisture adsorption amount (%),[1]; relative humidity 50.0%,1.096%
same,Moisture desorption amount (%),[1]; relative humidity 50.0%,1.688%
same,Moisture adsorption amount (%),[1]; relative humidity 55.0%,1.186%
same,Moisture desorption amount (%),[1]; relative humidity 55.0%,1.776%
same,Moisture adsorption amount (%),[1]; relative humidity 60.0%,1.285%
same,Moisture desorption amount (%),[1]; relative humidity 60.0%,1.870%
same,Moisture adsorption amount (%),[1]; relative humidity 65.0%,1.382%
same,Moisture desorption amount (%),[1]; relative humidity 65.0%,1.964%
same,Moisture adsorption amount (%),[1]; relative humidity 70.0%,1.498%
same,Moisture desorption amount (%),[1]; relative humidity 70.0%,2.062%
same,Moisture adsorption amount (%),[1]; relative humidity 75.0%,1.612%
same,Moisture desorption amount (%),[1]; relative humidity 75.0%,2.166%
same,Moisture adsorption amount (%),[1]; relative humidity 80.0%,1.744%
same,Moisture desorption amount (%),[1]; relative humidity 80.0%,2.278%
same,Moisture adsorption amount (%),[1]; relative humidity 85.0%,1.915%
same,Moisture desorption amount (%),[1]; relative humidity 85.0%,2.398%
same,Moisture adsorption amount (%),[1]; relative humidity 90.0%,2.168%
same,Moisture desorption amount (%),[1]; relative humidity 90.0%,2.522%
same,Moisture adsorption amount (%),[1]; relative humidity 95.0%,2.597%
same,Moisture desorption amount (%),[1]; relative humidity 95.0%,2.597%
